Our source for the Ki values is patent US20260193293A1, “PEPTIDES CAPABLE OF INHIBITING PROTEIN-PROTEIN INTERACTIONS AT GABAB1A SUBUNIT AND USES THEREOF” (UNIVERSITY OF COPENHAGEN, priority 2022, published 2026).

Molecules are shown by their SMILES. Non-standard residues stand in square brackets, D forms with d. Residues, ends and D or L forms follow the SMILES beside them. NMeT = CN[C@H](C(=O)O)[C@@H](C)O; NMeE = CN[C@@H](CCC(=O)O)C(=O)O; NMeD = CN[C@@H](CC(=O)O)C(=O)O; Sar = CNCC(=O)O

The first assay deals with Sushi domains (SD1/2) protein. The assay is described as follows: Fluorescence polarization (FP) competition assay with AJAP-1probe, calculated Ki. The class given is binding. To be noted: Table 8, Ala-, D-amino acids and N-methylation scans of AJAP-1WT; read-out: Ki (nM) mean ± SEM. An outline of the steps: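 Competition against 25 nM TAMRA-labelled peptide probe binding SD1/2, in PBS pH 7.4 with 1% BSA at rt, read at 530/580 nm. IC50 from sigmoidal dose-response fits, at least triplicate; Ki calculated from IC50 using probe Kd from saturation binding.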
Regarding `CC[C@H](C)[C@H](NC(=O)[C@H](Cc1ccccc1)NC(=O)[C@H](CCC(=O)O)NC(=O)[C@@H](NC(=O)[C@H](CCC(=O)O)NC(C)=O)[C@@H](C)O)C(=O)N[C@@H](C)C(=O)N[C@@H](Cc1c[nH]c2ccccc12)C(=O)NCC(=O)N1CCC[C@H]1C(=O)N[C@H](C(=O)NCC(=O)N[C@@H](CC(=O)O)C(=O)N[C@@H](CCC(=O)O)C(=O)N[C@@H](C)C(N)=O)[C@@H](C)O` (Ac-ETEFIAWGPTGDEA-NH2), the Ki (usually the equilibrium dissociation constant of an inhibitor or competing ligand from its target) was 44 ± 1 nM.
The same measure, in the same setting: to `CC[C@H](C)[C@H](NC(=O)[C@H](Cc1ccccc1)NC(=O)[C@H](CCC(=O)O)NC(=O)[C@@H](NC(=O)[C@H](CCC(=O)O)NC(C)=O)[C@@H](C)O)C(=O)N[C@@H](C)C(=O)N[C@@H](Cc1c[nH]c2ccccc12)C(=O)NCC(=O)N1CCC[C@H]1C(=O)N[C@H](C(=O)NCC(=O)N[C@@H](CC(=O)O)C(=O)N[C@@H](CCC(=O)O)C(=O)N(C)[C@@H](CC(=O)O)C(N)=O)[C@@H](C)O` (Ac-ETEFIAWGPTGDE[NMeD]-NH2) belongs 29 ± 1 nM; to `CC[C@H](C)[C@H](NC(=O)[C@H](Cc1ccccc1)NC(=O)[C@H](CCC(=O)O)NC(=O)[C@@H](NC(=O)[C@H](CCC(=O)O)NC(C)=O)[C@@H](C)O)C(=O)N[C@@H](C)C(=O)N[C@@H](Cc1c[nH]c2ccccc12)C(=O)NCC(=O)N1CCC[C@H]1C(=O)N[C@H](C(=O)NCC(=O)N[C@@H](CC(=O)O)C(=O)N(C)[C@@H](CCC(=O)O)C(=O)N[C@@H](CC(=O)O)C(N)=O)[C@@H](C)O` (Ac-ETEFIAWGPTGD[NMeE]D-NH2), 31 ± 1 nM.
With `CC[C@H](C)[C@H](NC(=O)[C@H](Cc1ccccc1)NC(=O)[C@H](CCC(=O)O)NC(=O)[C@@H](NC(=O)[C@H](CCC(=O)O)NC(C)=O)[C@@H](C)O)C(=O)N[C@@H](C)C(=O)N[C@@H](Cc1c[nH]c2ccccc12)C(=O)NCC(=O)N1CCC[C@H]1C(=O)N[C@H](C(=O)NCC(=O)N(C)[C@@H](CC(=O)O)C(=O)N[C@@H](CCC(=O)O)C(=O)N[C@@H](CC(=O)O)C(N)=O)[C@@H](C)O` (Ac-ETEFIAWGPTG[NMeD]ED-NH2), the inhibition constant Ki is 45 ± 2 nM.
On the same count and under the same terms, to `CC[C@H](C)[C@H](NC(=O)[C@H](Cc1ccccc1)NC(=O)[C@H](CCC(=O)O)NC(=O)[C@@H](NC(=O)[C@H](CCC(=O)O)NC(C)=O)[C@@H](C)O)C(=O)N[C@@H](C)C(=O)N[C@@H](Cc1c[nH]c2ccccc12)C(=O)NCC(=O)N1CCC[C@H]1C(=O)N[C@H](C(=O)N(C)CC(=O)N[C@@H](CC(=O)O)C(=O)N[C@@H](CCC(=O)O)C(=O)N[C@@H](CC(=O)O)C(N)=O)[C@@H](C)O` (Ac-ETEFIAWGPT[Sar]DED-NH2) belongs 132 ± 5 nM; to `CC[C@H](C)[C@H](NC(=O)[C@H](Cc1ccccc1)NC(=O)[C@H](CCC(=O)O)NC(=O)[C@@H](NC(=O)[C@H](CCC(=O)O)NC(C)=O)[C@@H](C)O)C(=O)N[C@@H](C)C(=O)N[C@@H](Cc1c[nH]c2ccccc12)C(=O)NCC(=O)N1CCC[C@H]1C(=O)N(C)[C@H](C(=O)NCC(=O)N[C@@H](CC(=O)O)C(=O)N[C@@H](CCC(=O)O)C(=O)N[C@@H](CC(=O)O)C(N)=O)[C@@H](C)O` (Ac-ETEFIAWGP[NMeT]GDED-NH2), 77 ± 3 nM.

Staying with this assay, now noted: Table 11, deep mutational scanning validation variants of AJAP-1WT; read-out: Ki (nM) mean ± SEM.
In the case of `CC[C@H](C)[C@H](NC(=O)[C@H](Cc1ccccc1)NC(=O)[C@H](CCC(=O)O)NC(=O)[C@@H](NC(=O)[C@H](CCC(=O)O)NC(C)=O)[C@@H](C)O)C(=O)N[C@@H](C)C(=O)N[C@@H](Cc1c[nH]c2ccccc12)C(=O)NCC(=O)N1CCC[C@H]1C(=O)N[C@H](C(=O)NCC(=O)N[C@@H](CC(=O)O)C(=O)N[C@@H](CCC(=O)O)C(=O)N[C@@H](Cc1ccccc1)C(N)=O)[C@@H](C)O` (Ac-ETEFIAWGPTGDEF-NH2), the inhibition constant (Ki) is 48 ± 1 nM.
The same measure, in the same setting: the value for `CC[C@H](C)[C@H](NC(=O)[C@H](Cc1ccccc1)NC(=O)[C@H](CCC(=O)O)NC(=O)[C@@H](NC(=O)[C@H](CCC(=O)O)NC(C)=O)[C@@H](C)O)C(=O)N[C@@H](C)C(=O)N[C@@H](Cc1c[nH]c2ccccc12)C(=O)NCC(=O)N1CCC[C@H]1C(=O)N[C@H](C(=O)NCC(=O)N[C@@H](CC(=O)O)C(=O)N[C@@H](CCC(=O)O)C(=O)N[C@@H](CC(N)=O)C(N)=O)[C@@H](C)O` (Ac-ETEFIAWGPTGDEN-NH2) was 43 ± 2 nM; that for `CC[C@H](C)[C@H](NC(=O)[C@H](Cc1ccccc1)NC(=O)[C@H](CCC(=O)O)NC(=O)[C@@H](NC(=O)[C@H](CCC(=O)O)NC(C)=O)[C@@H](C)O)C(=O)N[C@@H](C)C(=O)N[C@@H](Cc1c[nH]c2ccccc12)C(=O)NCC(=O)N1CCC[C@H]1C(=O)N[C@H](C(=O)NCC(=O)N[C@@H](CC(=O)O)C(=O)N[C@@H](CCC(=O)O)C(=O)N1CCC[C@H]1C(N)=O)[C@@H](C)O` (Ac-ETEFIAWGPTGDEP-NH2) was 41 ± 2 nM.
The same measure, in the same setting: the value for `CC[C@H](C)[C@H](NC(=O)[C@H](Cc1ccccc1)NC(=O)[C@H](CCC(=O)O)NC(=O)[C@@H](NC(=O)[C@H](CCC(=O)O)NC(C)=O)[C@@H](C)O)C(=O)N[C@@H](C)C(=O)N[C@@H](Cc1c[nH]c2ccccc12)C(=O)NCC(=O)N1CCC[C@H]1C(=O)N[C@H](C(=O)NCC(=O)N[C@@H](CC(=O)O)C(=O)N[C@@H](CCC(=O)O)C(=O)N[C@@H](CCC(N)=O)C(N)=O)[C@@H](C)O` (Ac-ETEFIAWGPTGDEQ-NH2) was 37 ± 2 nM; that for `CC[C@H](C)[C@H](NC(=O)[C@H](Cc1ccccc1)NC(=O)[C@H](CCC(=O)O)NC(=O)[C@@H](NC(=O)[C@H](CCC(=O)O)NC(C)=O)[C@@H](C)O)C(=O)N[C@@H](C)C(=O)N[C@@H](Cc1c[nH]c2ccccc12)C(=O)NCC(=O)N1CCC[C@H]1C(=O)N[C@H](C(=O)NCC(=O)N[C@@H](CC(=O)O)C(=O)N[C@@H](CCC(=O)O)C(=O)N[C@H](C(N)=O)C(C)C)[C@@H](C)O` (Ac-ETEFIAWGPTGDEV-NH2) was 40 ± 2 nM.
On the same count and under the same terms, the value for `CC[C@H](C)[C@H](NC(=O)[C@H](Cc1ccccc1)NC(=O)[C@H](CCC(=O)O)NC(=O)[C@@H](NC(=O)[C@H](CCC(=O)O)NC(C)=O)[C@@H](C)O)C(=O)N[C@@H](C)C(=O)N[C@@H](Cc1c[nH]c2ccccc12)C(=O)NCC(=O)N1CCC[C@H]1C(=O)N[C@H](C(=O)NCC(=O)N[C@@H](CC(=O)O)C(=O)N[C@@H](CCC(=O)O)C(=O)N[C@@H](Cc1c[nH]c2ccccc12)C(N)=O)[C@@H](C)O` (Ac-ETEFIAWGPTGDEW-NH2) was 54 ± 2 nM; that for `CC[C@H](C)[C@H](NC(=O)[C@H](Cc1ccccc1)NC(=O)[C@H](CCC(=O)O)NC(=O)[C@@H](NC(=O)[C@H](CCC(=O)O)NC(C)=O)[C@@H](C)O)C(=O)N[C@@H](C)C(=O)N[C@@H](Cc1c[nH]c2ccccc12)C(=O)NCC(=O)N1CCC[C@H]1C(=O)N[C@H](C(=O)NCC(=O)N[C@@H](CC(=O)O)C(=O)N[C@@H](Cc1ccccc1)C(=O)N[C@@H](CC(=O)O)C(N)=O)[C@@H](C)O` (Ac-ETEFIAWGPTGDFD-NH2) was 41 ± 2 nM.
As for `CC[C@H](C)[C@H](NC(=O)[C@H](Cc1ccccc1)NC(=O)[C@H](CCC(=O)O)NC(=O)[C@@H](NC(=O)[C@H](CCC(=O)O)NC(C)=O)[C@@H](C)O)C(=O)N[C@@H](C)C(=O)N[C@@H](Cc1c[nH]c2ccccc12)C(=O)NCC(=O)N1CCC[C@H]1C(=O)N[C@H](C(=O)NCC(=O)N[C@@H](CC(=O)O)C(=O)N1CCC[C@H]1C(=O)N[C@@H](CC(=O)O)C(N)=O)[C@@H](C)O` (Ac-ETEFIAWGPTGDPD-NH2), the Ki is 34 ± 2 nM.
Same read-out and setting: the value for `CC[C@H](C)[C@H](NC(=O)[C@H](Cc1ccccc1)NC(=O)[C@H](CCC(=O)O)NC(=O)[C@@H](NC(=O)[C@H](CCC(=O)O)NC(C)=O)[C@@H](C)O)C(=O)N[C@@H](C)C(=O)N[C@@H](Cc1c[nH]c2ccccc12)C(=O)NCC(=O)N1CCC[C@H]1C(=O)N[C@H](C(=O)NCC(=O)N[C@@H](CC(=O)O)C(=O)N[C@@H](CCCNC(=N)N)C(=O)N[C@@H](CC(=O)O)C(N)=O)[C@@H](C)O` (Ac-ETEFIAWGPTGDRD-NH2) was 54 ± 2 nM; that for `CC[C@H](C)[C@H](NC(=O)[C@H](Cc1ccccc1)NC(=O)[C@H](CCC(=O)O)NC(=O)[C@@H](NC(=O)[C@H](CCC(=O)O)NC(C)=O)[C@@H](C)O)C(=O)N[C@@H](C)C(=O)N[C@@H](Cc1c[nH]c2ccccc12)C(=O)NCC(=O)N1CCC[C@H]1C(=O)N[C@H](C(=O)NCC(=O)N[C@@H](CC(=O)O)C(=O)N[C@@H](Cc1c[nH]c2ccccc12)C(=O)N[C@@H](CC(=O)O)C(N)=O)[C@@H](C)O` (Ac-ETEFIAWGPTGDWD-NH2) was 54 ± 1 nM.
Turning to `CC[C@H](C)[C@H](NC(=O)[C@H](Cc1ccccc1)NC(=O)[C@H](CCC(=O)O)NC(=O)[C@@H](NC(=O)[C@H](CCC(=O)O)NC(C)=O)[C@@H](C)O)C(=O)N[C@@H](C)C(=O)N[C@@H](Cc1c[nH]c2ccccc12)C(=O)NCC(=O)N1CCC[C@H]1C(=O)N[C@H](C(=O)NCC(=O)N[C@@H](CC(=O)O)C(=O)N[C@@H](Cc1ccc(O)cc1)C(=O)N[C@@H](CC(=O)O)C(N)=O)[C@@H](C)O` (Ac-ETEFIAWGPTGDYD-NH2), the Ki is 40 ± 1 nM.

Still in this assay, the particulars now being: Table 13, peptides for affinity maturation; read-out: Ki (nM) mean ± SEM.
On to `CC[C@H](C)[C@H](NC(=O)[C@H](Cc1ccccc1)NC(=O)[C@H](CCC(=O)O)NC(=O)[C@@H](NC(=O)[C@H](CCC(=O)O)NC(C)=O)[C@@H](C)O)C(=O)N[C@@H](C)C(=O)N[C@@H](Cc1c[nH]c2ccccc12)C(=O)N[C@@H](Cc1ccc(O)cc1)C(=O)NCC(=O)N1CCC[C@H]1C(=O)N[C@@H](C)C(=O)N[C@@H](CC(=O)O)C(=O)N[C@H](C(=O)N[C@@H](CC(=O)O)C(N)=O)[C@@H](C)O` (Ac-ETEFIAWYGPADTD-NH2), for which the Ki is 182 ± 2 nM.
The same measure, in the same setting: to `CC[C@H](C)[C@H](NC(=O)[C@H](Cc1ccccc1)NC(=O)[C@H](CCC(=O)O)NC(=O)[C@@H](NC(=O)[C@H](CCC(=O)O)NC(C)=O)[C@@H](C)O)C(=O)N[C@@H](C)C(=O)N[C@@H](Cc1c[nH]c2ccccc12)C(=O)N[C@@H](Cc1ccc(O)cc1)C(=O)N1CCC[C@H]1C(=O)N[C@@H](C)C(=O)N[C@@H](CC(=O)O)C(=O)N[C@H](C(=O)N[C@@H](CC(=O)O)C(N)=O)[C@@H](C)O` (Ac-ETEFIAWYPADTD-NH2) belongs 190 ± 3 nM.
